One experiment addresses T1, human DPPS (Homo sapiens, UniProt Q5T2R2).
T1 construct: made in house
T1 sequence (Q5T2R2 1-415): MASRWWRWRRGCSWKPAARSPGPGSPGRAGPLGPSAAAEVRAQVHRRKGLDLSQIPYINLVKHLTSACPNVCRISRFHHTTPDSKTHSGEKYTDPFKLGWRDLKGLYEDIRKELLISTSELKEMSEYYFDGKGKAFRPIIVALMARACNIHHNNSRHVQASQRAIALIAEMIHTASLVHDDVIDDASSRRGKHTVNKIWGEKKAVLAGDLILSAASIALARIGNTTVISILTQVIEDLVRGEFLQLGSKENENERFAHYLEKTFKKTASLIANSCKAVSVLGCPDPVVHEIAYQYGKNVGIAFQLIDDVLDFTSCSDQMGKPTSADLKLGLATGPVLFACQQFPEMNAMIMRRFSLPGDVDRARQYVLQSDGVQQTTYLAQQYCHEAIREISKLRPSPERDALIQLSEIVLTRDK
T1 sequence (Q86YH6 1-399 partner): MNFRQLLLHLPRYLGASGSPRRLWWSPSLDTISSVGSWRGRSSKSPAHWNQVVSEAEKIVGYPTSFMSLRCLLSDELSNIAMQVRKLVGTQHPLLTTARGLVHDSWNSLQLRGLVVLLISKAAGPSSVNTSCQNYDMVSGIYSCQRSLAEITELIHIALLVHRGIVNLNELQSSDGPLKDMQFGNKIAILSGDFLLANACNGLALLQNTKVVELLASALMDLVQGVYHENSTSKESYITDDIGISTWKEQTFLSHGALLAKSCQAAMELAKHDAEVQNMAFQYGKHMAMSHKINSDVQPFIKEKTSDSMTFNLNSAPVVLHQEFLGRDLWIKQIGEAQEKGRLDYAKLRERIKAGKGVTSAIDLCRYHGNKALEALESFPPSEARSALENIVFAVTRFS
The experiment can be described thus: human DPPS enzyme inhibition. Format: biochemical. As to conditions: Table 1, experimental; for Ki: read-out: DPPS_pKi (converted). The text has this: (§1) To test our polypharmaceutical hypothesis, we expressed three enzymes: human FPPS, GGPPS and DPPS, and tested each for their inhibition by a series of bisphosphonates.

The subject of experiment [1] is SF-268 (central nervous system glioblastoma). The experiment can be described thus: SF-268 cell growth inhibition (MTT). The following applies: Table 1, experimental; for IC50: Homo sapiens, SF-268, read-out: SF-268 pIC50 (converted). Format: cell-based, human. From the text:
(§2) Cell Growth Inhibition Assays. […] A broth microdilution method was used to determine IC50 values for growth inhibition by each bisphosphonate. […] NBPs were typically initially dissolved in H2O (0.01 M) while NNBPs were typically dissolved in DMSO (0.01 M).
(§3) GraphPad PRISM® version 4.0 software for windows (GraphPad Software Inc., San Diego, Calif., www.graphpad.com) was used to fit the data to a rectangular hyperbolic function: I=(ImaxC)/(IC50+C); […]

Experiment [2] concerns MCF-7 (breast adenocarcinoma). Kind of experiment: MCF-7 cell growth inhibition (MTT), incl. FOH/GGOH rescue. Format: cell-based, human. As to conditions: for IC50: Homo sapiens, MCF7.
Description: as §2
GraphPad PRISM® version 4.0 software for windows (GraphPad Software Inc., San Diego, Calif., www.graphpad.com) was used to fit the data to a rectangular hyperbolic function: I=(ImaxC)/(IC50+C);
For the “rescue” experiments, stock solutions of FOH or GGOH were prepared (in ethanol) and the requisite amounts added to the incubation media to produce a fixed 20 μM concentration.

Experiment [3] relates to NCI-H460 (lung large cell). Kind of experiment: NCI-H460 cell growth inhibition (MTT). Format: cell-based, human. As to conditions: Table 1, experimental; for IC50: Homo sapiens, NCI-H460, read-out: NCI-H460 pIC50 (converted).
Description: as §2, §3

Another experiment concerns Vγ2Vδ2 T cells. Kind of experiment: γδ T cell activation (TNF-α release and proliferation). Format: cell-based, human. The following applies: Table 2, -log10(value, M); for EC50: Homo sapiens, T-cell, read-out: γδ T Cell Avg pED50 (converted). The method, then:
γδ T Cell Assays. Vγ2Vδ2 T cell TNF-α release and proliferation were performed basically as described previously^1. Briefly, to measure bioactivity for Vγ2Vδ2 T cells, the CD4^+ JN.24, CD4^+ HF.2, CD8αα^+ 12G12, or the CD4^−8^− HD.108 Vγ2Vδ2 T cell clones were stimulated with phosphoantigens in the presence of CP.EBV (an EBV transformed B cell line) for CD4^+ clones or Va-2 (a transformed fibroblast) for CD8αα^+ and CD4^−8^− clones. CP.EBV and Va-2 were fixed with 0.05% glutaraldehyde (EM grade, Sigma, Mo.) for use as APCs. […] Curve fitting minima for each experiment (e.g. TNF-α release from JN.24 cells) were determined using the Global Fitting technique, as implemented in Prism 4.0. Curve fitting maxima were optimized for each individual compound without the use of any constraints.

Another experiment deals with T2, human FPPS (Homo sapiens, UniProt P14324).
T2 construct: made in house
T2 sequence (P14324 1-419): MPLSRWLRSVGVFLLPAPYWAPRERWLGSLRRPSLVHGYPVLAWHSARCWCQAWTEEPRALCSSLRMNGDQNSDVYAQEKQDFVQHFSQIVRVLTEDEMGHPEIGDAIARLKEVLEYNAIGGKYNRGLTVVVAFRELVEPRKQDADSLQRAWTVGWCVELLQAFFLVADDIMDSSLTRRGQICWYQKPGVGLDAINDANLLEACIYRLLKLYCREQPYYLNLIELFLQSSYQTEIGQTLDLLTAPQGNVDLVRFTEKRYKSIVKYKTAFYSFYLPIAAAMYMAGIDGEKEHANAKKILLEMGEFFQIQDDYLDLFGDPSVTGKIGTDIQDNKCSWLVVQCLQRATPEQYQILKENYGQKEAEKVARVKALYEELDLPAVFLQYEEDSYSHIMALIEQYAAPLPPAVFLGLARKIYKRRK
Kind of experiment: human FPPS enzyme inhibition. Format: biochemical. The following applies: Table 1, experimental; for Ki: read-out: FPPS pKi (converted).
Description: as §1

[4] abbreviates: Table 1, experimental, read-out: MCF-7 pIC50 (converted).
Where [5] appears, read: Table 2, -log10(value, M), read-out: MCF-7 Cell pIC50 (converted).

The structures appear in SMILES notation. Where two headings read alike, the source gives them in different places.

For the compound `O=P(O)(O)C(O)(Cc1cccnc1)P(=O)(O)O` [BPH-2], at human DPPS, the DPPS pKi is 7.3. In addition, in experiment [1], the “SF-268 pIC50 (M)” value is listed as 3.9 M. Moreover, the “MCF-7 pIC50 (M)” value in experiment [2] (Table 1, experimental) was determined as 3.8 M. Further, the “MCF-7 Cell pIC50 (M)” value in experiment [2] (Table 2, -log10(value, M)) came to 3.13 M. Moreover, the “NCI-H460 pIC50 (M)” value in experiment [3] was 3.7 M. Moreover, the “γδ T Cell Avg pED50 (M)” value in the experiment on Vγ2Vδ2 T cells was 4.29 M.
On to `O=P([O-])(O)C(O)(C[n+]1ccccc1)P(=O)(O)O` (stereo not shown) [BPH-278], for which the “FPPS pKi (M)” value at human FPPS stood at 8.6 M. This compound returned a DPPS pKi on human DPPS of 7.2. In addition, the “SF-268 pIC50 (M)” value in experiment [1] is 4.3 M. For the same compound, the “MCF-7 pIC50 (M)” value in experiment [2] (Table 1, experimental) is 4.1 M. Moreover, the “MCF-7 Cell pIC50 (M)” value in experiment [2] (Table 2, -log10(value, M)) is 4.10 M. Moreover, in experiment [3], the “NCI-H460 pIC50 (M)” value turned out to be 4.1 M. Moreover, the “γδ T Cell Avg pED50 (M)” value in the experiment on Vγ2Vδ2 T cells is 4.20 M.
For `O=P([O-])(O)C(O)(C[n+]1cccc(-c2ccccc2)c1)P(=O)(O)O` (stereo not shown) [BPH-300], on human FPPS, the “FPPS pKi (M)” value is on record as 8.3 M. Also, the DPPS pKi at human DPPS turned out to be 6.9. Besides, the “SF-268 pIC50 (M)” value in experiment [1] came out at 4.5 M. The “MCF-7 pIC50 (M)” value in experiment [2] (Table 1, experimental) came to 4.4 M. In addition, the “NCI-H460 pIC50 (M)” value in experiment [3] is reported as 4.5 M.
Take `Cc1ccc[n+](CC(P(=O)([O-])O)P(=O)(O)O)c1` (stereo not shown) [BPH-474]: the “FPPS pKi (M)” value on human FPPS is recorded as 8.4 M. Also, the DPPS pKi on human DPPS came out at 6.9. In experiment [1], the “SF-268 pIC50 (M)” value was 4.1 M. The “MCF-7 pIC50 (M)” value in experiment [2] (Table 1, experimental) is given as 4.1 M. In experiment [2] (Table 2, -log10(value, M)), the “MCF-7 Cell pIC50 (M)” value was 4.42 M. Further, the “NCI-H460 pIC50 (M)” value in experiment [3] is 4.2 M. Moreover, in the experiment on Vγ2Vδ2 T cells, the “γδ T Cell Avg pED50 (M)” value is reported as 3.85 M.
Turning to `O=P([O-])(O)C(C[n+]1cccc(Br)c1)P(=O)(O)O` (stereo not shown) [BPH-483], the “FPPS pKi (M)” value on human FPPS turned out to be 8.5 M. For the same compound, the DPPS pKi at human DPPS was 6.8. In addition, the “SF-268 pIC50 (M)” value in experiment [1] was 4.0 M. Besides, the “MCF-7 pIC50 (M)” value in experiment [2] (Table 1, experimental) is given as 4.0 M. In experiment [2] (Table 2, -log10(value, M)), the “MCF-7 Cell pIC50 (M)” value was found to be 3.84 M. Moreover, in experiment [3], the “NCI-H460 pIC50 (M)” value is listed as 4.1 M. In the experiment with Vγ2Vδ2 T cells, the “γδ T Cell Avg pED50 (M)” value was found to be 4.04 M.
For the compound `CCCCCCCCCCc1ccc[n+](CC(P(=O)([O-])O)P(=O)(O)O)c1` (stereo not shown) [BPH-638], the Ki at human FPPS is 15.8 nM; on human DPPS it was 501 nM. Also, the IC50 is 200 nM in experiment [1], 158 nM in experiment [2] (setting [4]), 170 nM in experiment [2] (setting [5]) and 158 nM in experiment [3]. The EC50 in the experiment on Vγ2Vδ2 T cells was 1700 nM.
For `CCCCCCCC[S+](C)CC(P(=O)([O-])O)P(=O)(O)O` (stereo not shown) [BPH-683], the Ki at human DPPS was 63.1 nM. Further, the IC50 is 12600 nM in experiment [1], 20000 nM in experiment [2] (setting [4]), 6760 nM in experiment [2] (setting [5]) and 15800 nM in experiment [3]. For the same compound, in the experiment with Vγ2Vδ2 T cells, the EC50 is 107000 nM.
`CCC[S+](C)CC(P(=O)([O-])O)P(=O)(O)O` (stereo not shown) [BPH-685] showed a DPPS pKi at human DPPS of 6.7. In experiment [1], the “SF-268 pIC50 (M)” value was determined as 3.7 M. Moreover, the “MCF-7 pIC50 (M)” value in experiment [2] (Table 1, experimental) worked out at 3.6 M. The “MCF-7 Cell pIC50 (M)” value in experiment [2] (Table 2, -log10(value, M)) was determined as 4.02 M. Also, in experiment [3], the “NCI-H460 pIC50 (M)” value is 3.9 M. In the experiment with Vγ2Vδ2 T cells, the “γδ T Cell Avg pED50 (M)” value is on record as 3.81 M.
Take `CCCCCCCCCCCCCC[S+](C)CC(P(=O)([O-])O)P(=O)(O)O` (stereo not shown) [BPH-694]: the “FPPS pKi (M)” value at human FPPS came to 7.1 M. Also, the DPPS pKi at human DPPS was 6.6. For the same compound, the “SF-268 pIC50 (M)” value in experiment [1] turned out to be 5.9 M. In addition, the “MCF-7 pIC50 (M)” value in experiment [2] (Table 1, experimental) was 4.9 M. Besides, the “MCF-7 Cell pIC50 (M)” value in experiment [2] (Table 2, -log10(value, M)) is 6.69 M. The “NCI-H460 pIC50 (M)” value in experiment [3] was 6.0 M. Further, in the experiment on Vγ2Vδ2 T cells, the “γδ T Cell Avg pED50 (M)” value is recorded as 6.20 M.
Consider `CCCCCCCCc1cc[n+](CC(P(=O)([O-])O)P(=O)(O)O)cc1` (stereo not shown) [BPH-717], for which the Ki at human FPPS was 20 nM; at human DPPS, 79.4 nM. For the same compound, the IC50 in experiment [1] is 631 nM; in experiment [2] (setting [4]) it was 501 nM; in experiment [3], 631 nM.
For the compound `CCOCCOCCCc1ccc[n+](CC(P(=O)([O-])O)P(=O)(O)O)c1` (stereo not shown) [BPH-727], the “FPPS pKi (M)” value on human FPPS came to 8.2 M. The compound further came in with a DPPS pKi at human DPPS of 6.8. Moreover, the “SF-268 pIC50 (M)” value in experiment [1] was 3.7 M. Besides, the “MCF-7 pIC50 (M)” value in experiment [2] (Table 1, experimental) is on record as 3.5 M. Moreover, the “MCF-7 Cell pIC50 (M)” value in experiment [2] (Table 2, -log10(value, M)) is recorded as 3.62 M. Further, the “NCI-H460 pIC50 (M)” value in experiment [3] was 3.5 M. Further, in the experiment on Vγ2Vδ2 T cells, the “γδ T Cell Avg pED50 (M)” value is on record as 3.77 M.
